# According to ChEMBL document CHEMBL5528065, “Structure-Activity Relationship of a Pyrrole Based Series of PfPKG Inhibitors as Anti-Malarials” (J Med Chem, 2024):
# Tested on: not listed separately
# Assay: Inhibition of recombinant Plasmodium falciparum PKG using FAM-PKA peptide as fluorescent substrate preincubated for 15 mins followed by substrate addition measured after 1 hr by fluorescence polarization based IMAP assay
# Settings: not given
Structure (SMILES),IC50 [nM],pIC50
CN1CCC(c2cc(-c3ccncc3CO)c(-c3ccc(F)cc3)[nH]2)CC1.Cl.Cl,1520,5.82
CN1CCC(c2[nH]c(-c3ccc(F)cc3)c(-c3ccncc3)c2C#N)CC1.Cl.Cl,11,7.96
C[C@@H]1CN(C)CC[C@H]1c1cc(-c2ccncc2)c(-c2ccc(F)cc2)[nH]1.Cl.Cl (racemic),27,7.64
CN1CCC(c2cc(-c3ccncc3)c(-c3ccc(C(F)(F)F)cc3)[nH]2)CC1.Cl.Cl,329,6.94
C=Cc1c(C2CCN(C)CC2)[nH]c(-c2ccc(F)cc2)c1-c1ccncc1.CC(=O)O,246,6.61
CN1CCC(c2cc(-c3ccncc3C(N)=O)c(-c3ccc(F)cc3)[nH]2)CC1.Cl.Cl,4910,5.31
CN1CCC(c2cc(-c3ccn4nnnc4c3)c(-c3ccc(F)cc3)[nH]2)CC1.Cl.Cl,11600,4.94
CN(C)Cc1c(C2CCN(C)CC2)[nH]c(-c2ccc(F)cc2)c1-c1ccncc1.Cl.Cl.Cl,3760,5.43
C[C@H]1CN(C)CC[C@H]1c1cc(-c2ccncc2)c(-c2ccc(F)cc2)[nH]1.Cl.Cl (racemic),10,7.89
CCc1c(C2CCN(C)CC2)[nH]c(-c2ccc(F)cc2)c1-c1ccncc1.Cl.Cl,1610,5.79
CN1C[C@@H]2C(c3cc(-c4ccncc4)c(-c4ccc(F)cc4)[nH]3)[C@@H]2C1.Cl.Cl (stereo not given in full),207,6.59
COc1ccc(-c2[nH]c(C3CCN(C)CC3)cc2-c2ccncc2)cc1.Cl.Cl,30,7.2
CC(=O)O.CN1CCC(c2cc(-c3ccnc(C#N)c3)c(-c3ccc(F)cc3)[nH]2)CC1,95,7.02
CN1CCC(c2cc(-c3ccnc(Br)c3)c(-c3ccc(F)cc3)[nH]2)CC1.Cl.Cl,169,6.77
CN1CCC(C)(c2cc(-c3ccncc3)c(-c3ccc(F)cc3)[nH]2)CC1.Cl.Cl,50,7.09
CN1CCC(c2[nH]c(-c3ccc(F)cc3)c(-c3ccncc3)c2C(N)=O)CC1.Cl.Cl,4840,5.31
CC(=O)O.CC(O)c1c(C2CCN(C)CC2)[nH]c(-c2ccc(F)cc2)c1-c1ccncc1 (stereo not given),1430,5.84

# Tested on: Plasmodium falciparum
# Assay: Antimalarial activity against drug-sensitive Plasmodium falciparum 3D7 infected in human erythrocytes assessed as reduction in parasitemia incubated for 72 hrs by SYBR green I and Mitotracker deep red dye based flow cytometric analysis
# Format: functional, organism-based
# Settings: not given
row,Structure (SMILES),EC50 [nM]
1,C[C@H]1CN(C)CC[C@H]1c1cc(-c2ccncc2)c(-c2ccc(F)cc2)[nH]1.Cl.Cl (racemic),30

# Same assay, conditions: Plasmodium falciparum, 3D7, 72 h
row,Structure (SMILES),EC50 [nM]
1,CN1CCC(c2cc(-c3ccncc3CO)c(-c3ccc(F)cc3)[nH]2)CC1.Cl.Cl,481
2,CN1CCC(c2[nH]c(-c3ccc(F)cc3)c(-c3ccncc3)c2C#N)CC1.Cl.Cl,900
3,C[C@@H]1CN(C)CC[C@H]1c1cc(-c2ccncc2)c(-c2ccc(F)cc2)[nH]1.Cl.Cl (racemic),30
4,CN1CCC(c2cc(-c3ccncc3)c(-c3ccc(C(F)(F)F)cc3)[nH]2)CC1.Cl.Cl,530
5,C=Cc1c(C2CCN(C)CC2)[nH]c(-c2ccc(F)cc2)c1-c1ccncc1.CC(=O)O,1080
6,CN1CCC(c2cc(-c3ccncc3C(N)=O)c(-c3ccc(F)cc3)[nH]2)CC1.Cl.Cl,> 20000
7,CN1CCC(c2cc(-c3ccn4nnnc4c3)c(-c3ccc(F)cc3)[nH]2)CC1.Cl.Cl,2750
8,CN1C[C@@H]2C(c3cc(-c4ccncc4)c(-c4ccc(F)cc4)[nH]3)[C@@H]2C1.Cl.Cl (stereo not given in full),640
9,COc1ccc(-c2[nH]c(C3CCN(C)CC3)cc2-c2ccncc2)cc1.Cl.Cl,230
10,CC(=O)O.CN1CCC(c2cc(-c3ccnc(C#N)c3)c(-c3ccc(F)cc3)[nH]2)CC1,420
11,CN1CCC(c2cc(-c3ccnc(Br)c3)c(-c3ccc(F)cc3)[nH]2)CC1.Cl.Cl,1720
12,CN1CCC(C)(c2cc(-c3ccncc3)c(-c3ccc(F)cc3)[nH]2)CC1.Cl.Cl,550
13,CN1CCC(c2[nH]c(-c3ccc(F)cc3)c(-c3ccncc3)c2C(N)=O)CC1.Cl.Cl,> 20000
14,CC(=O)O.CC(O)c1c(C2CCN(C)CC2)[nH]c(-c2ccc(F)cc2)c1-c1ccncc1 (stereo not given),4260

# Tested on: Plasmodium falciparum
# Assay: Antimalarial activity against Plasmodium falciparum expressing PKG T618Q mutant infected in human erythrocytes assessed as reduction in parasitemia incubated for 72 hrs by SYBR green I and Mitotracker deep red dye based flow cytometric analysis
# Format: functional, organism-based
# Settings: Plasmodium falciparum, 72 h
row,Structure (SMILES),EC50 [nM]
1,CN1CCC(c2cc(-c3ccncc3CO)c(-c3ccc(F)cc3)[nH]2)CC1.Cl.Cl,6230
2,CN1CCC(c2[nH]c(-c3ccc(F)cc3)c(-c3ccncc3)c2C#N)CC1.Cl.Cl,2450
3,C[C@@H]1CN(C)CC[C@H]1c1cc(-c2ccncc2)c(-c2ccc(F)cc2)[nH]1.Cl.Cl (racemic),800
4,CN1CCC(c2cc(-c3ccncc3)c(-c3ccc(C(F)(F)F)cc3)[nH]2)CC1.Cl.Cl,800
5,C=Cc1c(C2CCN(C)CC2)[nH]c(-c2ccc(F)cc2)c1-c1ccncc1.CC(=O)O,1170
6,CN1CCC(c2cc(-c3ccn4nnnc4c3)c(-c3ccc(F)cc3)[nH]2)CC1.Cl.Cl,2270
7,C[C@H]1CN(C)CC[C@H]1c1cc(-c2ccncc2)c(-c2ccc(F)cc2)[nH]1.Cl.Cl (racemic),660
8,CN1C[C@@H]2C(c3cc(-c4ccncc4)c(-c4ccc(F)cc4)[nH]3)[C@@H]2C1.Cl.Cl (stereo not given in full),900
9,COc1ccc(-c2[nH]c(C3CCN(C)CC3)cc2-c2ccncc2)cc1.Cl.Cl,1090
10,CC(=O)O.CN1CCC(c2cc(-c3ccnc(C#N)c3)c(-c3ccc(F)cc3)[nH]2)CC1,3730
11,CN1CCC(c2cc(-c3ccnc(Br)c3)c(-c3ccc(F)cc3)[nH]2)CC1.Cl.Cl,1930
12,CN1CCC(C)(c2cc(-c3ccncc3)c(-c3ccc(F)cc3)[nH]2)CC1.Cl.Cl,1070
13,CC(=O)O.CC(O)c1c(C2CCN(C)CC2)[nH]c(-c2ccc(F)cc2)c1-c1ccncc1 (stereo not given),3750

# Tested on: Plasmodium berghei
# Assay: Antimalarial activity against Plasmodium berghei sporozoites expressing Luciferase infected in human HepG2 cells assessed as reduction in parasite growth incubated for 48 hrs by ONE-Glo luciferase assay
# Format: functional, organism-based
# Settings: not given
row,Structure (SMILES),EC50 [nM]
1,C[C@@H]1CN(C)CC[C@H]1c1cc(-c2ccncc2)c(-c2ccc(F)cc2)[nH]1.Cl.Cl (racemic),280

# Same assay, conditions: Plasmodium berghei, HepG2, 48 h
row,Structure (SMILES),EC50 [nM]
1,CN1CCC(c2cc(-c3ccncc3CO)c(-c3ccc(F)cc3)[nH]2)CC1.Cl.Cl,2400
2,CN1CCC(c2[nH]c(-c3ccc(F)cc3)c(-c3ccncc3)c2C#N)CC1.Cl.Cl,540
3,CN1CCC(c2cc(-c3ccncc3)c(-c3ccc(C(F)(F)F)cc3)[nH]2)CC1.Cl.Cl,2600
4,C=Cc1c(C2CCN(C)CC2)[nH]c(-c2ccc(F)cc2)c1-c1ccncc1.CC(=O)O,410
5,CN1CCC(c2cc(-c3ccn4nnnc4c3)c(-c3ccc(F)cc3)[nH]2)CC1.Cl.Cl,> 20000
6,C[C@H]1CN(C)CC[C@H]1c1cc(-c2ccncc2)c(-c2ccc(F)cc2)[nH]1.Cl.Cl (racemic),190
7,CN1C[C@@H]2C(c3cc(-c4ccncc4)c(-c4ccc(F)cc4)[nH]3)[C@@H]2C1.Cl.Cl (stereo not given in full),670
8,COc1ccc(-c2[nH]c(C3CCN(C)CC3)cc2-c2ccncc2)cc1.Cl.Cl,240
9,CC(=O)O.CN1CCC(c2cc(-c3ccnc(C#N)c3)c(-c3ccc(F)cc3)[nH]2)CC1,2800
10,CN1CCC(C)(c2cc(-c3ccncc3)c(-c3ccc(F)cc3)[nH]2)CC1.Cl.Cl,500

# Species on record: Homo sapiens
# Assay: Inhibition of human PKG using FAM-IP3R peptide as fluorescent substrate at 10 uM preincubated for 15 mins followed by substrate addition measured after 1 hr by fluorescence polarization based IMAP assay relative to control
# Settings: time 75.0 min
row,Structure (SMILES),inhibition [%]
1,CN1CCC(c2cc(-c3ccncc3CO)c(-c3ccc(F)cc3)[nH]2)CC1.Cl.Cl,1
2,CN1CCC(c2[nH]c(-c3ccc(F)cc3)c(-c3ccncc3)c2C#N)CC1.Cl.Cl,19
3,C[C@@H]1CN(C)CC[C@H]1c1cc(-c2ccncc2)c(-c2ccc(F)cc2)[nH]1.Cl.Cl (racemic),9
4,CN1CCC(c2cc(-c3ccncc3)c(-c3ccc(C(F)(F)F)cc3)[nH]2)CC1.Cl.Cl,-2
5,C=Cc1c(C2CCN(C)CC2)[nH]c(-c2ccc(F)cc2)c1-c1ccncc1.CC(=O)O,-1
6,CN1CCC(c2cc(-c3ccncc3C(N)=O)c(-c3ccc(F)cc3)[nH]2)CC1.Cl.Cl,15
7,CN1CCC(c2cc(-c3ccn4nnnc4c3)c(-c3ccc(F)cc3)[nH]2)CC1.Cl.Cl,12
8,CN(C)Cc1c(C2CCN(C)CC2)[nH]c(-c2ccc(F)cc2)c1-c1ccncc1.Cl.Cl.Cl,8
9,C[C@H]1CN(C)CC[C@H]1c1cc(-c2ccncc2)c(-c2ccc(F)cc2)[nH]1.Cl.Cl (racemic),35
10,CCc1c(C2CCN(C)CC2)[nH]c(-c2ccc(F)cc2)c1-c1ccncc1.Cl.Cl,12
11,CN1C[C@@H]2C(c3cc(-c4ccncc4)c(-c4ccc(F)cc4)[nH]3)[C@@H]2C1.Cl.Cl (stereo not given in full),6
12,COc1ccc(-c2[nH]c(C3CCN(C)CC3)cc2-c2ccncc2)cc1.Cl.Cl,6
13,CC(=O)O.CN1CCC(c2cc(-c3ccnc(C#N)c3)c(-c3ccc(F)cc3)[nH]2)CC1,9
14,CN1CCC(c2cc(-c3ccnc(Br)c3)c(-c3ccc(F)cc3)[nH]2)CC1.Cl.Cl,36
15,CN1CCC(C)(c2cc(-c3ccncc3)c(-c3ccc(F)cc3)[nH]2)CC1.Cl.Cl,35
16,CN1CCC(c2[nH]c(-c3ccc(F)cc3)c(-c3ccncc3)c2C(N)=O)CC1.Cl.Cl,14
17,CC(=O)O.CC(O)c1c(C2CCN(C)CC2)[nH]c(-c2ccc(F)cc2)c1-c1ccncc1 (stereo not given),15
